Experimental data from patent US9334244B2, “Compounds useful as inhibitors of ATR kinase” (Vertex Pharmaceuticals Incorporated, priority 2010, dated 2016).

Target: T1, full-length ATR (Homo sapiens, UniProt Q13535)
T1 construct: Assays were carried out at 25° C. in the presence of 5 nM full-length ATR
Assay: ATR Inhibition Assay (radioactive-phosphate incorporation)
Type: biochemical
Conditions: 5 nM full-length ATR, 10 μM [γ-33P]ATP, 800 μM target peptide, 25° C.; read-out: Ki value (Ki(app)) for inhibition of ATR
Description: Compounds were screened for their ability to inhibit ATR kinase using a radioactive-phosphate incorporation assay. Assays were carried out in a mixture of 50 mM Tris/HCl (pH 7.5), 10 mM MgCl2 and 1 mM DTT. Final substrate concentrations were 10 μM [γ-^33P]ATP (3mCi 33P ATP/mmol ATP, Perkin Elmer) and 800 μM target peptide ([…]).
Assays were carried out at 25° C. in the presence of 5 nM full-length ATR. An assay stock buffer solution was prepared containing all of the reagents listed above, with the exception of ATP and the test compound of interest. 13.5 μL of the stock solution was placed in a 96 well plate followed by addition of 2 μL of DMSO stock containing serial dilutions of the test compound (typically starting from a final concentration of 15 μM with 3-fold serial dilutions) in duplicate (final DMSO concentration 7%). The plate was pre-incubated for 10 minutes at 25° C. and the reaction initiated by addition of 15 μl [γ-^33P]ATP (final concentration 10 μM).
The reaction was stopped after […] by the addition of 30 μL 0.1M phosphoric acid containing 2 mM ATP. A multiscreen phosphocellulose filter 96-well plate (Millipore, Cat no. MAPHN0B50) was pretreated with 100 μL 0.2M phosphoric acid prior to the addition of 45 μL of the stopped assay mixture. The plate was washed with 5×200 μL 0.2M phosphoric acid. After drying, 100 μL Optiphase ‘SuperMix’ liquid scintillation cocktail (Perkin Elmer) was added to the well prior to scintillation counting (1450 Microbeta Liquid Scintillation Counter, Wallac).
After removing mean background values for all of the data points, Ki(app) data were calculated from non-linear regression analysis of the initial rate data using the Prism software package (GraphPad Prism version 3.0cx for Macintosh, GraphPad Software, San Diego Calif., USA).

T1 sequence (Q13535 whole entry): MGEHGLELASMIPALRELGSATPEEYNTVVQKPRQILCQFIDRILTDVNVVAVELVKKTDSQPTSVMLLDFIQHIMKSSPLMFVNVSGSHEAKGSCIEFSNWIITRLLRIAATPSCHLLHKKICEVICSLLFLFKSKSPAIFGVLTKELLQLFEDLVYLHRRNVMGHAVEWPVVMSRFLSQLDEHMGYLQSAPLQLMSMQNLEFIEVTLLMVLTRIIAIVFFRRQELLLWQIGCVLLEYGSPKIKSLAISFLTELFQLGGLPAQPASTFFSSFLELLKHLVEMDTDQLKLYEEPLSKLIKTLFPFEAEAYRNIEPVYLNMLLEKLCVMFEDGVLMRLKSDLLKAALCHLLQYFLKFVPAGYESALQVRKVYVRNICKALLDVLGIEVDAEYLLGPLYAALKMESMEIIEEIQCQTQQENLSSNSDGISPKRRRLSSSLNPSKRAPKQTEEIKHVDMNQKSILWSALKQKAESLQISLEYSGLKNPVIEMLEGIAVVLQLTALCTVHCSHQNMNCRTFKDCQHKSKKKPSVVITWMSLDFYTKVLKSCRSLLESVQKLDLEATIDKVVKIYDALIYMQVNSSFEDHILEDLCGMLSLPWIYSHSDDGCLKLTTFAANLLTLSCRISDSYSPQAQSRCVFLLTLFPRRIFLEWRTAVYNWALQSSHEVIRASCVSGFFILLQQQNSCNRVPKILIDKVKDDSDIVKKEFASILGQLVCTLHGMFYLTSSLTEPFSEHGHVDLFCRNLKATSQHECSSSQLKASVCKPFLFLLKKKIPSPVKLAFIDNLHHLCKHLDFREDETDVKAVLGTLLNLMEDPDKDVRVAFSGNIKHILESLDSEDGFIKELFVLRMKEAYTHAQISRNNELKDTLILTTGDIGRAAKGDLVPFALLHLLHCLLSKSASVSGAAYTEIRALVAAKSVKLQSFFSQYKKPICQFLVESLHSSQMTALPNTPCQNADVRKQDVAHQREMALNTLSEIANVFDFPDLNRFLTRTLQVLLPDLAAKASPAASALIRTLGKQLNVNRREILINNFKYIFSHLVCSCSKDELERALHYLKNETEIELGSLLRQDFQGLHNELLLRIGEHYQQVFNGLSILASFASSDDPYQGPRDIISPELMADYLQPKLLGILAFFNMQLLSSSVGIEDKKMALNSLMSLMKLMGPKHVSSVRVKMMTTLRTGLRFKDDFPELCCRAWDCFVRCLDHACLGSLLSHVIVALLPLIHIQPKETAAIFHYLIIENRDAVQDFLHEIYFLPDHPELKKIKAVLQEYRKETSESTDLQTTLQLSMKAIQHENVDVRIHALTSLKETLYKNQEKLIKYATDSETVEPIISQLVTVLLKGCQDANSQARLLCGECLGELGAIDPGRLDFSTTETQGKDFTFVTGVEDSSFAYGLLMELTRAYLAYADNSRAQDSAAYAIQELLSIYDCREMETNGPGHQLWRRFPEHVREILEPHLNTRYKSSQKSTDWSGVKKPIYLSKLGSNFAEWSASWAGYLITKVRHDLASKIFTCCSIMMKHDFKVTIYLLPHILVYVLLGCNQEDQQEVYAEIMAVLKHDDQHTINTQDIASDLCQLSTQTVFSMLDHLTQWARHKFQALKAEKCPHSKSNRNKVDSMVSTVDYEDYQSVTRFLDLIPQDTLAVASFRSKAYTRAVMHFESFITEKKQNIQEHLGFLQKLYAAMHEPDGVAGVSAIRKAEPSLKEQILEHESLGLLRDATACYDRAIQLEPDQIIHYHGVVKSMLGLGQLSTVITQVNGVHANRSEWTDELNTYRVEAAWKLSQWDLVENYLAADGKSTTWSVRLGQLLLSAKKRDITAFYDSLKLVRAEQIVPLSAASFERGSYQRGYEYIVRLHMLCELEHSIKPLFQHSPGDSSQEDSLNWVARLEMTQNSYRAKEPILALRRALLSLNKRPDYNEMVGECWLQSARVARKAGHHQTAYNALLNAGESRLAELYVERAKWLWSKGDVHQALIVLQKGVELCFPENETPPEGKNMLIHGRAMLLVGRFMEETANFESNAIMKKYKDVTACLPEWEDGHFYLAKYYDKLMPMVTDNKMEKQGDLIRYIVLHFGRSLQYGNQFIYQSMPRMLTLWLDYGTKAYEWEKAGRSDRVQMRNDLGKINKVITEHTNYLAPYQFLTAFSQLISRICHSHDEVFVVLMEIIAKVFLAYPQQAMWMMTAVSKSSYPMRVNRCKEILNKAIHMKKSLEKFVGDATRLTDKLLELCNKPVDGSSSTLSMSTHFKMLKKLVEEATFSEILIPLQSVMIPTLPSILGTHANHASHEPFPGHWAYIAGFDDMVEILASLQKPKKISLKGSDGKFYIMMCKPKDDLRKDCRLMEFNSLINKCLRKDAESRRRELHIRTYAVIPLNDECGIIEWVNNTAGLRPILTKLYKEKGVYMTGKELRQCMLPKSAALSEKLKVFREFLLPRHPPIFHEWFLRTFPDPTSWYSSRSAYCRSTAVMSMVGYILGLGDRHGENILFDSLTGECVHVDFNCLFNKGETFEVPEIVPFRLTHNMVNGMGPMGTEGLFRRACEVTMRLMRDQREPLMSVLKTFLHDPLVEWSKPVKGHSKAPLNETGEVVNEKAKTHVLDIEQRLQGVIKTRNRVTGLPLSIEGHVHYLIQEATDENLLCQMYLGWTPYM

| Ki [nM] | SMILES |
| --- | --- |
| 250 to 500 | Cc1ncc(-c2ccc(S(C)(=O)=O)cc2)nc1C(=O)Nc1ccccc1 [Compound IV-1, 3-Methyl-6-(4-(methylsulfonyl)phenyl)-N-phenylpyrazine-2-carboxamide] |
| 100 to 250 | CC(C)S(=O)(=O)c1ccc(-c2cncc(-c3cc(-c4ccccc4)no3)n2)cc1 [Compound IV-2, 5-(6-(4-(isopropylsulfonyl)phenyl)pyrazin-2-yl)-3-phenylisoxazole] |
| < 100 | CNCc1ccc(-c2cc(-c3cncc(-c4ccc(S(=O)(=O)C(C)C)cc4)n3)on2)cc1 [Compound IV-3, 1-(4-(5-(6-(4-(isopropylsulfonyl)phenyl)pyrazin-2-yl)isoxazol-3-yl)phenyl)-N-methylmethanamine] |
